Bridges are numbered along the chain shown (N, C = ends). Where no end group is shown, it is not given here. [ ]: non-standard residue; d: D form. PEG 40 kDa = PEG (40 kDa) covalently attached to Cys; Aib = CC(C)(N)C(=O)O
Columns and labels:
[1] = Blood glucose levels of mice after peptide injection; conditions: Example 28; DIO mice, subcutaneous, 10 nmol/kg, Day 0 versus Day 7
[2] = Glucose tolerance test (1-hour and 24-hour GTT) in DIO mice; type: in vivo; conditions: Example 26
Procedure: A 1-hour glucose tolerance test (GTT) was performed on the mice by intraperitoneally injecting a 25% (w/v) glucose saline solution into the mice one hour after injection with one of the peptides or vehicle control. The glucose saline solution was administered to the mice at a dose of 1.5 g per kg of mouse body weight. Blood glucose levels were measured at the time of injection of peptide or vehicle control (−60 min), at the time of glucose saline solution injection (0 min), or at 15, 30, 60, or 120 min post injection with the glucose saline solution.
A 24-hour GTT also was performed on the mice in the same manner as the 1-hour GTT, except that the glucose saline solution was administered to the mice 24 hours after injection with the peptide or vehicle control. The results of the 24-hour GTT are showri in FIG. 8.

[3] = test system: glucagon receptor, GLP-1 receptor or GIP receptor; experiment: Agonist profile across receptors assigned from the cAMP reporter assay data; type: cell-based; conditions: assigned from the in vitro EC50 data of Tables 1-4
[4] = Body weight of mice after peptide injection; conditions: DIO mice

## mt-178: pegylated, cyclic, lactam-containing GIP-active glucagon analog; GLP-1/GIP co-agonist peptide (Y[Aib]EGTFTSDYSIYLDEQAAKEFVNWLLAGGPSSGAPPPSC(PEG 40 kDa)-NH2; lactam 16-20)
[1]
  blood glucose levels: decreased
[2]; 1 or 3 nmol/kg/week versus control at 10 nmol/kg/week
  potency in GTT compared with GLP-1 agonist control peptide: greater than that of the GLP-1 agonist control peptide
[2]; DIO mice, intraperitoneal, 1, 3 or 10 nmol/kg/week, versus vehicle control
  blood glucose levels in 1-hour and 24-hour GTT: exhibited decreased levels of blood glucose
[3]
  receptor activity profile (glucagon / GLP-1 / GIP agonism): exemplary GLP-1/GIP co-agonist peptides
[4]; Example 22, subcutaneous QW, 70 or 210 nmol/kg/week
  reduction of body weight: a little more effective at reducing body weight in the mice as Chimera 2 AIB2, but not as effective as Chimera 2 AIB2 lactam
[4]; Example 26, intraperitoneal, 3 or 10 nmol/kg/week, up to Day 7
  % change in body weight: lost weight to the same or greater extent of mice injected with the GLP-agonist control peptide
[4]; Example 28, subcutaneous, 10 nmol/kg, Day 7
  total change in body weight: greatest loss of body weight 7 days after injection
